10 compounds from patent publication US20240279202A1 (NURIX THERAPEUTICS, INC., priority 2021, published 2024) can be followed below.

The structures appear in SMILES notation.

The DC50 is the concentration at which degradation of the target reaches its halfway point. A lower DC50 goes with a more potent degrader. By Dmax is commonly meant the largest share of the target that was removed. A low value points to shallow degradation. Usually AUC(0-t) stands for exposure summed from dosing to a finite time, without extrapolation to infinity. Low readings indicate low exposure, high ones high exposure. By Cmax is commonly meant the peak of the concentration-time curve. The Tmax is the time from dosing to the highest level.

One data set concerns the target T1, ITK (Homo sapiens, UniProt Q08881).
T1 sequence (Q08881 1-620): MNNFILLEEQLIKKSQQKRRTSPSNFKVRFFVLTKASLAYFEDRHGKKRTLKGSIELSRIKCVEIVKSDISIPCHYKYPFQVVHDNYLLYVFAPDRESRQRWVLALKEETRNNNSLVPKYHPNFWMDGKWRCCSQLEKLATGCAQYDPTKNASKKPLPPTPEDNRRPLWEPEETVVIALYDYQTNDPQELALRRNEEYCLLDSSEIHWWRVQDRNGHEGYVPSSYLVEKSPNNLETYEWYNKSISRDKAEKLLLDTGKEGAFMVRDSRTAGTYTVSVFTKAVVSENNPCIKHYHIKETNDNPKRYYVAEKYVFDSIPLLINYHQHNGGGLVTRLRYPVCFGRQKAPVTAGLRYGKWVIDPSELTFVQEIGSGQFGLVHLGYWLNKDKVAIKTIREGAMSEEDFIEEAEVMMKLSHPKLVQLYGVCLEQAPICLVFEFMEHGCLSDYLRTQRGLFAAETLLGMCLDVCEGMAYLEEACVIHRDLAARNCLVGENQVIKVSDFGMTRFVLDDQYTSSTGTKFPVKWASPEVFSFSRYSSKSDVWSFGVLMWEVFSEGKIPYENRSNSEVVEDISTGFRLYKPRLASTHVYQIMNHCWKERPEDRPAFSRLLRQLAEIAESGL
As to the kind of experiment: ITK degradation HiBiT assay. The settings on record: 4 hrs; for DC50: C-terminal HiBiT-tagged Molt4 cells; for Dmax: MOLT-4, C-terminal HiBiT-tagged Molt4 cells. The arrangement: expressed in transfected cells; host or cells: Molt4 (ATCC CRL-1552), monoclonal clone 1C10, engineered to carry the HiBiT tag. In kind it is cell-based. The gist of the method: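 C-terminal HiBiT-tagged Molt4 cells (clone 1C10) treated 4 h at 32° C with an 11-point, 5-fold compound dilution series (0.5% DMSO). HiBiT lytic detection with LgBiT then luminescence read; % ITK remaining versus concentration fit by four-parameter variable-slope model to give DC50 and Dmax.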

The nature of data set [1]: Mouse PK analysis (blood/plasma concentration after oral administration). The class given is in vivo. As to conditions: mice; for concentration at 1 h / concentration at 2 h / concentration at 6 h / AUC(0-t) / Cmax / Tmax: mouse, plasma, oral; for concentration at 1 h / concentration at 2 h / concentration at 6 h: 90 mg/kg; for concentration at 1 h: read-out: Cal. Conc. Total (μM) 1 h; for concentration at 2 h: read-out: Cal. Conc. Total (μM) 2 h; for concentration at 6 h: read-out: Cal. Conc. Total (μM) 6 h. Here is the method: Compounds 1, 3, 7, and 42 were formulated and administered at 90 mg/kg to mice by oral gavage (PO). Blood was collected at defined time points (after 1, 2, and 6 hours) after compounds administration to determine PK parameters. Concentration increased through 6 hours. Six hours later mice were sacrificed and splenocytes were isolated and used to prepare protein lysates. Total protein levels were determined in the lysates using the BCA assay according to standard methods. Equal amounts of protein were then analyzed by Western blot to determine the level of ITK expression in each sample. ITK band intensities were measured using Alpha View software and the percent of ITK remaining in each test animal was determined relative to the mean of ITK levels in vehicle control samples.
Compounds 16, 17, and 18 were administered to mice orally. After 6 hours or 24 hours, splenocytes cells were harvested. ITK was evaluated by Western blotting. Plasma concentrations were determined by LC/MS/MS. Plasma samples were protein precipitated by addition of 100 μl of acetonitrile containing 50 ng/ml of internal standard. The resulting mixture was vortexed and centrifuged at 4000 RPM for 5 minutes. An aliquot of the resultant supernatant (75 μl) was added to 75 μl of 0.1% formic acid in water to constitute the final sample for injection. Samples were injected on a Shimadzu Exion LC Binary Gradient AD Pump HLPC system connected to a Sciex QTRAP 6500+mass spectrometer. Five μl of sample was injected onto a Waters Acquity UPLC BEH C18 column 130A (2.1×30 mm, […]) at 40° C. utilizing a flow rate of 700 μl/minute. Mobile Phase A was 0.1% formic acid in water and mobile phase B was 0.1% formic acid in acetonitrile. A linear gradient of 15-95% B over 1.0 minute was used. The mass spectrometer was operated in positive ion electrospray mode with multiple reaction monitoring for maximum sensitivity. Sciex Analyst software (version 1.6.3) was used for LC/MS/MS instrument control and acquisition. Compound concentration was determined against a standard curve of internal standard versus compound peak area ratio. Noncompartmental PK parameters were determined using […] software (version 8.2.0.4383) from Certara. Plasma concentrations from the LC/MS/MS analyses, dose, route of administration, and desired units were utilized for PK parameter calculations. […] FIG. 4C provides the concentration over time of compound 17 following in vivo oral administration in the 6 hour and 24 hour assays.
Cmax, Tmax and AUClast were all calculated using a WinNonLin Phoenix 64 v 8.2.0.4383. Using non-compartmental analysis, Tmax, Cmax and AUClast were determined as follows: • Tmax—Time of maximum observed concentration. • Cmax—Maximum observed concentration, occurring at time Tmax, as defined above. • AUClast—Area under the curve from the time of dosing to the time of the last measurable (positive) concentration (Tlast).

Consider `C[C@@H](C(=O)N(C)c1ccc2cc(-c3n[nH]c4c3CCC(C)(C)C4)[nH]c2c1)N1CCN(C(=O)C2CN(C3CCN(c4ccc5c(c4)C(=O)N(C4CCC(=O)NC4=O)C5=O)CC3)C2)CC1` (stereo partly drawn) [Compound 34, (2S)—N-(2-(6,6-dimethyl-4,5,6,7-tetrahydro-1H-indazol-3-yl)-1H-indol-6-yl)-2-(4-(1-(1-(2-(2,6-dioxopiperidin-3-yl)-1,3-dioxoisoindolin-5-yl)piperidin-4-yl)azetidine-3-carbonyl)piperazin-1-yl)-N-methylpropanamide], for which, at ITK, the 50% degradation concentration (DC50) is 1.8 nM and the Dmax came to 89%. For the same compound, the “Cal. Conc. Total (μM) 2 h” value in data set [1] (2 h) is reported as “BQL”. Further, in data set [1] (6 h), the “Cal. Conc. Total (μM) 6 h” value is given as “BQL”.

For `CN(C(=O)CCN1CCN(c2ccc3c(c2)C(=O)N(C2CCC(=O)NC2=O)C3=O)CC1)c1ccc2cc(-c3n[nH]c4c3CCC(C)(C)C4)[nH]c2c1` (stereo not shown) [Compound 2, N-(2-(6,6-dimethyl-4,5,6,7-tetrahydro-1H-indazol-3-yl)-1H-indol-6-yl)-3-(4-(2-(2,6-dioxopiperidin-3-yl)-1,3-dioxoisoindolin-5-yl)piperazin-1-yl)-N-methylpropanamide], at ITK, the DC50 was determined as 4.4 nM and the Dmax stood at 90%. Further, the concentration at 1 h in data set [1] amounted to 0.041 µM. Further, the concentration at 2 h in data set [1] (2 h) worked out at 0.039 µM. Further, the concentration at 6 h in data set [1] (6 h) was 0.059 µM.

On ITK, `Cn1c(=O)n([C@H]2CCC(=O)NC2=O)c2cccc(N3CCC(CN4CCN(C(=O)c5ccc6cc(-c7n[nH]c8c7CCC(C)(C)C8)[nH]c6c5)CC4)CC3)c21` [Compound 46, (S)-3-(4-(4-((4-(2-(6,6-dimethyl-4,5,6,7-tetrahydro-1H-indazol-3-yl)-1H-indole-6-carbonyl)piperazin-1-yl)methyl)piperidin-1-yl)-3-methyl-2-oxo-2,3-dihydro-1H-benzo[d]imidazol-1-yl)piperidine-2,6-dione] returned a DC50 of 14 nM and a Dmax of 79%. For the same compound, in data set [1], the AUC(0-t) is 9.38 µM·h, the Cmax came to 2130 nM and the Tmax turned out to be 4 h.

Turning to `Cn1c(=O)n([C@@H]2CCC(=O)NC2=O)c2cccc(N3CCC(CN4CCN(C(=O)c5ccc6cc(-c7n[nH]c8c7CCC(C)(C)C8)[nH]c6c5)CC4)CC3)c21` [Compound 48, (R)-3-(4-(4-((4-(2-(6,6-dimethyl-4,5,6,7-tetrahydro-1H-indazol-3-yl)-1H-indole-6-carbonyl)piperazin-1-yl)methyl)piperidin-1-yl)-3-methyl-2-oxo-2,3-dihydro-1H-benzo[d]imidazol-1-yl)piperidine-2,6-dione], on ITK, half-maximal degradation (DC50) was put at 5.2 nM and the Dmax was 86%. Also, in data set [1], the AUC(0-t) came out at 8.42 µM·h, the highest level (Cmax) was 2440 nM and the Tmax amounted to 6 h.

At ITK, `C[C@@]12Cc3[nH]nc(C(=O)Nc4cnn(CC5CN(C[C@H]6CCN(c7ccc8c(c7)C(=O)N(C7CCC(=O)NC7=O)C8=O)C6)C5)c4)c3C[C@@H]1C2(F)F` (stereo partly drawn) [Compound 44, (4aS,5aR)-N-(1-((1-(((3R)-1-(2-(2,6-dioxopiperidin-3-yl)-1,3-dioxoisoindolin-5-yl)pyrrolidin-3-yl)methyl)azetidin-3-yl)methyl)-1H-pyrazol-4-yl)-5,5-difluoro-5a-methyl-1,4,4a,5,5a,6-hexahydrocyclopropa[f]indazole-3-carboxamide] gave a DC50 of 2.4 nM and a Dmax of 88%. In data set [1], the highest level (Cmax) was 27 nM and the Tmax turned out to be 2 h.

On to `C[C@@]12Cc3[nH]nc(C(=O)Nc4cnn(CC5CN(C(=O)C6CN(c7ccc8c(c7)C(=O)N(C7CCC(=O)NC7=O)C8=O)C6)C5)c4)c3C[C@@H]1C2(F)F` (stereo partly drawn) [Compound 43, (4aS,5aR)-N-(1-((1-(1-(2-(2,6-dioxopiperidin-3-yl)-1,3-dioxoisoindolin-5-yl)azetidine-3-carbonyl)azetidin-3-yl)methyl)-1H-pyrazol-4-yl)-5,5-difluoro-5a-methyl-1,4,4a,5,5a,6-hexahydrocyclopropa[f]indazole-3-carboxamide], for which, at ITK, it took 2.9 nM to reach half-maximal degradation (DC50) and the Dmax was determined as 93%. Besides, in data set [1], the exposure AUC(0-t) is 2.34 µM·h, the highest level (Cmax) was 720 nM and the Tmax is 6 h.

On ITK, `CC1(C)CCc2c(-c3cc4ccc(N5CCC6(CCN(CC7CCN(c8ccc(C9CCC(=O)NC9=O)cn8)CC7)CC6)C5=O)cc4[nH]3)n[nH]c2C1` (stereo not shown) [Compound 22, 3-(6-(4-((2-(2-(6,6-dimethyl-4,5,6,7-tetrahydro-1H-indazol-3-yl)-1H-indol-6-yl)-1-oxo-2,8-diazaspiro[4.5]decan-8-yl)methyl)piperidin-1-yl)pyridin-3-yl)piperidine-2,6-dione] gave a DC50 of 0.01 nM and a Dmax of 82%. Moreover, in data set [1], the AUC(0-t) was 7.07 µM·h, the peak level (Cmax) was 2430 nM and the Tmax was 1 h.

For `CN(C(=O)C1CN(C2CCN(c3ccc4c(c3)C(=O)N(C3CCC(=O)NC3=O)C4=O)CC2)C1)c1ccc2cc(-c3n[nH]c4c3CCC(C)(C)C4)[nH]c2c1` (stereo not shown) [Compound 35, N-(2-(6,6-dimethyl-4,5,6,7-tetrahydro-1H-indazol-3-yl)-1H-indol-6-yl)-1-(1-(2-(2,6-dioxopiperidin-3-yl)-1,3-dioxoisoindolin-5-yl)piperidin-4-yl)-N-methylazetidine-3-carboxamide], the concentration at 2 h in data set [1] (2 h) was 0.155 µM. Besides, the concentration at 6 h in data set [1] (6 h) was determined as 0.053 µM.

As for `C[C@@H](C(=O)N(C)c1ccc2cc(-c3n[nH]c4c3CCC(C)(C)C4)[nH]c2c1)N1CCN(CC2CCN(c3ccc(C(=O)NC4CCC(=O)NC4=O)nc3)CC2)CC1` (stereo partly drawn) [Compound 7, 5-(4-((4-((S)-1-((2-(6,6-dimethyl-4,5,6,7-tetrahydro-1H-indazol-3-yl)-1H-indol-6-yl)(methyl)amino)-1-oxopropan-2-yl)piperazin-1-yl)methyl)piperidin-1-yl)-N-(2,6-dioxopiperidin-3-yl)picolinamide], in data set [1], the concentration at 1 h was found to be 0.2 µM. In data set [1] (2 h), the concentration at 2 h came to 0.29 µM. The concentration at 6 h in data set [1] (6 h) amounted to 0.45 µM.

Regarding `CN(C(=O)CC1CCN(CC2CCN(c3ccc(C(=O)NC4CCC(=O)NC4=O)nc3)CC2)CC1)c1ccc2cc(-c3n[nH]c4c3C[C@@H]3C(F)(F)[C@]3(C)C4)[nH]c2c1` (stereo partly drawn) [Compound 75, 5-(4-((4-(2-((2-((4aS,5aR)-5,5-difluoro-5a-methyl-1,4,4a,5,5a,6-hexahydrocyclopropa[f]indazol-3-yl)-1H-indol-6-yl)(methyl)amino)-2-oxoethyl)piperidin-1-yl)methyl)piperidin-1-yl)-N-(2,6-dioxopiperidin-3-yl)picolinamide], on ITK, half-maximal degradation (DC50) was put at 0.5 nM and the Dmax came out at 83%.
